According to ChEMBL document CHEMBL1201862, “PubChem BioAssay data set” (2004):
Calls of active or inactive are those of the source. Cut-off read from the data, not from the text of the source, for most assays here: actives have a measured EC50 and inactives only a lower limit.

Key:
cells [1] = assay type: functional, cell-based
cells [2] = assay type: functional, cell-based; remark: listed apart in the source
[3] = molecular target: T1, Calpain-2 catalytic subunit (Sus scrofa, UniProt P43367); assay: pig calpain II inhibitor potency, dose response, biochemical, fluorogenic peptide substrate (AID 1420); assay type: functional
T1 sequence (P43367 whole entry): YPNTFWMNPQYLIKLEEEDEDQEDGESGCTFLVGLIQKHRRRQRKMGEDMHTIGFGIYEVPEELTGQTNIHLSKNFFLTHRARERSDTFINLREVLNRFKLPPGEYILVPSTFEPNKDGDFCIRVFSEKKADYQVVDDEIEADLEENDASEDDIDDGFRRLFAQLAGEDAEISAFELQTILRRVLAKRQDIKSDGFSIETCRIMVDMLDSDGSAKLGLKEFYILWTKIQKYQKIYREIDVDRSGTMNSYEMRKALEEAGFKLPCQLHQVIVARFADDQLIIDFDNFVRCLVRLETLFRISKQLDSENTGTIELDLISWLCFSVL

[4] = cytotoxicity toward NIH3T3 fibroblasts, dose response, counter-screen, cell-based, ATP luminescence, mouse fibroblasts (AID 2010); assay type: functional;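 note: cells exposed to compound for about 90 hours before reading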
[5] = inhibitors of intracellular T. cruzi replication, confirmation, NIH3T3 host cells, beta-gal luminescence (AID 2044); assay type: functional, cell-based;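 note: intracellular parasites grown in NIH/3T3 mouse fibroblasts as host cells; luminescent beta-galactosidase reporter signal from transgenic T. cruzi replicating inside host cells; inhibitors lower the luminescence signal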
[6] = molecular target: T2, Heat shock factor protein 1 (Mus musculus, UniProt P38532); assay: HSF1 potentiators in luciferase reporter cells, confirmation, cell-based, NIH3T3, luminescence, dose retest (AID 435004); assay type: functional;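 note: stress induced by proteasome inhibitor MG132 added 30 min after compound; luciferase reporter driven by HSF1 response element in NIH3T3 cells; actives raise luminescence as potentiators of the MG132 stress response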
T2 sequence (P38532 whole entry): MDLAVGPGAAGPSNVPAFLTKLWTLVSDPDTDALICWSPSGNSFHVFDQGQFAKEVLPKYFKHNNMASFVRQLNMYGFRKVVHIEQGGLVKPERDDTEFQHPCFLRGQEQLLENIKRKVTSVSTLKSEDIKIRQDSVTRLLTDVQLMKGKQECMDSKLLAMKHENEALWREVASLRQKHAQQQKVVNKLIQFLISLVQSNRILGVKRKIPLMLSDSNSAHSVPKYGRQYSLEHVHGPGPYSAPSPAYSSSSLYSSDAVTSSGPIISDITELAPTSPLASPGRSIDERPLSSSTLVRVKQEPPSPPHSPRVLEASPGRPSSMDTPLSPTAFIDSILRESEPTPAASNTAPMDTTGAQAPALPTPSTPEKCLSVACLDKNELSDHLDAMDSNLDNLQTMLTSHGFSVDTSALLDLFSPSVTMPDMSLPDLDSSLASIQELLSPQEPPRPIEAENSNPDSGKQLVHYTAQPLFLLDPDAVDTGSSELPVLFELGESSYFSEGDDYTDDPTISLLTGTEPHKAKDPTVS

Fatty acid synthase [7] = molecular target: T3, Fatty acid synthase (Homo sapiens, UniProt P49327); assay: FAS thioesterase domain inhibitors, dose response, biochemical, endpoint fluorescence intensity, uHTS hits (AID 624327); assay type: functional;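 note: fluorescence from hydrolysis of an O-methyl fluorescein acyl ester substrate by the enzyme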
Fatty acid synthase [8] = molecular target: T3, Fatty acid synthase; assay: FAS thioesterase domain inhibitors, dose response, biochemical, kinetic fluorescence intensity (AID 624326); assay type: functional;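 note: rate of fluorescence rise from hydrolysis of a fluorogenic O-methyl fluorescein ester substrate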
H4 = assay: Luminescence Cell-Based Dose Response HTS to Identify Activators of 5'UTR Stem-Loop Driven Prion Protein mRNA Translation in H4 Neuroglioblastoma Cells. [Related pubchem assays: 1829 (Project Summary), 1814 (Primary HTS)]; assay type: functional; conditions: Homo sapiens
[9] = Luminescence Cell-Based Dose Response HTS to Identify Activators of Luciferase Translation or Activity in H4 […] Cells. [Related pubchem assays: 1829 (Project Summary), 1814 (Primary HTS)]; assay type: functional
[10] = Luminescence Cell-Based Dose Retest to Confirm Inhibitors of Cancer Stem Cells. [Related pubchem assays (depositor defined):AID2717, AID2721]; assay type: functional; conditions: Homo sapiens
INS1 = assay: beta cell apoptosis inhibitors, cytokine rescue, dose response, luminescence, retest (AID 449756); assay type: functional, cell-based; conditions: Rattus norvegicus;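 note: cell death triggered by IL-1 beta plus TNF-alpha plus IFN-gamma mixture; protective hits raise ATP signal compared with cytokine alone wells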
[11] = molecular target: Luciferin 4-monooxygenase (Photinus pyralis, UniProt P08659); assay: firefly luciferase enzyme inhibitors, dose response, biochemical, luminescence (AID 1891)
[12] = Luminescence Cell-Based Dose Confirmation HTS to Identify Inhibitors of Platelet Dense Granule Release. [Related pubchem assays: 1663 (Primary HTS), 1678 (Summary of Project)]; assay type: functional
Protein skinhead-1 = molecular target: T4, Protein skinhead-1 (Caenorhabditis elegans, UniProt P34707); assay type: functional
T4 sequence (P34707 whole entry): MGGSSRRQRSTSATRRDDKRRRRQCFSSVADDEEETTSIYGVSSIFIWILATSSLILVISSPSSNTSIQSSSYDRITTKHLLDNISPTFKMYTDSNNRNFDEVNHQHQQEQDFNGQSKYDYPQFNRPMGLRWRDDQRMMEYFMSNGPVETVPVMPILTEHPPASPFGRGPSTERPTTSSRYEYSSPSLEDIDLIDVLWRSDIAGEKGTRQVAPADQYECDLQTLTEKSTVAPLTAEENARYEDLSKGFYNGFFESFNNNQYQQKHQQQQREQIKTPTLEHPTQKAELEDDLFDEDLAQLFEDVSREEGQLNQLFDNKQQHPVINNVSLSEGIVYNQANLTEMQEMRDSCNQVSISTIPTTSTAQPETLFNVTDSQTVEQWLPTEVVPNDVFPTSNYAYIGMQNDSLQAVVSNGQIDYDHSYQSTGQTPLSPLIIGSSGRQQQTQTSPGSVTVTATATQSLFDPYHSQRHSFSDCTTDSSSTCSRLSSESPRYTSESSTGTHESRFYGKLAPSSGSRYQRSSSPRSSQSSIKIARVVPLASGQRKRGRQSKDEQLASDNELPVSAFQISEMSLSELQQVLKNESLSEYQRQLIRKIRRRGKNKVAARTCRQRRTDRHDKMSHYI

T3 sequence (P49327 whole entry, the tested form may be a part): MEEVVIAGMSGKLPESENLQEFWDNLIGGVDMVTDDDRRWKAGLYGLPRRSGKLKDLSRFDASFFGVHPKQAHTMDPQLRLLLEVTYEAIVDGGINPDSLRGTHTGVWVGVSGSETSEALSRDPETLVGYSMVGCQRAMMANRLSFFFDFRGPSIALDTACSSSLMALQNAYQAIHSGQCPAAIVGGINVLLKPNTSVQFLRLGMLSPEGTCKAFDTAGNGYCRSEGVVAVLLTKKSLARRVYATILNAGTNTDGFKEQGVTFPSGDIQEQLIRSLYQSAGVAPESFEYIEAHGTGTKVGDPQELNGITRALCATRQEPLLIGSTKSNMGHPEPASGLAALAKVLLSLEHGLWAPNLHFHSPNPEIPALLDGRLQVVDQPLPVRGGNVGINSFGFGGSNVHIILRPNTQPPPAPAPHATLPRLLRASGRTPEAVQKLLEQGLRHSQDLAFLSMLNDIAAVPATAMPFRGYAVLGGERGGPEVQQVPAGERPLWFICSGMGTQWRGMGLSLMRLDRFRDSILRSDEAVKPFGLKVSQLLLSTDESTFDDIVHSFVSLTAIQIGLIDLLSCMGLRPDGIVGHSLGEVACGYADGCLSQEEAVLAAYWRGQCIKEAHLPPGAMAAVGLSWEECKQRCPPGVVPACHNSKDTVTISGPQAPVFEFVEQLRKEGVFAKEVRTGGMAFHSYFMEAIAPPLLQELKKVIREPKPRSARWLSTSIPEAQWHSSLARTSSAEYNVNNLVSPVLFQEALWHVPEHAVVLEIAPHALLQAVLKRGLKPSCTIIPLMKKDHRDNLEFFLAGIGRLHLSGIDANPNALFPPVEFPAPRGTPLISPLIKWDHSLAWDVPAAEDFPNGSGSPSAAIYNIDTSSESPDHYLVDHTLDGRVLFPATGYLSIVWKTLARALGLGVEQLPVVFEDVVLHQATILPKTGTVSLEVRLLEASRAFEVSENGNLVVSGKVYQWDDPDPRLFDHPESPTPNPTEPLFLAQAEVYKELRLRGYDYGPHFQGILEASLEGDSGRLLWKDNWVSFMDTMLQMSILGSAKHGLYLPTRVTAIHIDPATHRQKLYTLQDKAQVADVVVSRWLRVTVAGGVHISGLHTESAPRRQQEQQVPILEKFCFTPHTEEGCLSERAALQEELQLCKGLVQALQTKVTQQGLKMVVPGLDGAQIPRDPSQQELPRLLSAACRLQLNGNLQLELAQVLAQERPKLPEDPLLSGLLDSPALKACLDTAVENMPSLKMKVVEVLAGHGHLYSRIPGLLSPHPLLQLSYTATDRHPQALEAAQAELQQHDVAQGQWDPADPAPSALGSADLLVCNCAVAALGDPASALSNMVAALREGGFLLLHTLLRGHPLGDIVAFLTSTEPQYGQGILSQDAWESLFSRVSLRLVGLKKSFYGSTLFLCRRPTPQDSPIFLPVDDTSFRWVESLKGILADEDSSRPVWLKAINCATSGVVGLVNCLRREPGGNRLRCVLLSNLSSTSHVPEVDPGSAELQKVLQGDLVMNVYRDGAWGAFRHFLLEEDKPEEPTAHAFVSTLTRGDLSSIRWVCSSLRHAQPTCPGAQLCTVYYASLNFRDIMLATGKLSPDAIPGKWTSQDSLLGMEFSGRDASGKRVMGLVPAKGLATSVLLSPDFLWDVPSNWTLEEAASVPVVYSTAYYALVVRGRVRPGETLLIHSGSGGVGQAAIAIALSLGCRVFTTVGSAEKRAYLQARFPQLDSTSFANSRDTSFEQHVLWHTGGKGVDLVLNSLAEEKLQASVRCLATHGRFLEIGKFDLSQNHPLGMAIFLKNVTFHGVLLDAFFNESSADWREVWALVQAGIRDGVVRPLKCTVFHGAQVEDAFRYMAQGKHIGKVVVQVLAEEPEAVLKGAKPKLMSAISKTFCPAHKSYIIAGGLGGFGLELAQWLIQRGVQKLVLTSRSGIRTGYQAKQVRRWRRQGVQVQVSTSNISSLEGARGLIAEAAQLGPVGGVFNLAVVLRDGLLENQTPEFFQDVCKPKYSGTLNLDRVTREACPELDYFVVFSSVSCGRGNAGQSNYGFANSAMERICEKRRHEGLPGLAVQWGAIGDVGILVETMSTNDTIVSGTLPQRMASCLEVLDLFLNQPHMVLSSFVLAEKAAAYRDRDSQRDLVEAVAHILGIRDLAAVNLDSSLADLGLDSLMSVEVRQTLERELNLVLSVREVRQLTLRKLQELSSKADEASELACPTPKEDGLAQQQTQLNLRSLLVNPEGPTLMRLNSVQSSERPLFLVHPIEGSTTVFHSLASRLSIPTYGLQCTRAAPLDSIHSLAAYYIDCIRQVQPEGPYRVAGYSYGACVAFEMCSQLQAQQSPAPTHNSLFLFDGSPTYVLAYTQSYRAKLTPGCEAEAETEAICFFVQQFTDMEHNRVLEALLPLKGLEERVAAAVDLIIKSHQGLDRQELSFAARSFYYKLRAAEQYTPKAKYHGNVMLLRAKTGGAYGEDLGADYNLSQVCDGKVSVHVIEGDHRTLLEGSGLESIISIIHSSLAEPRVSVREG
Sequence of Luciferin 4-monooxygenase (P08659 whole entry): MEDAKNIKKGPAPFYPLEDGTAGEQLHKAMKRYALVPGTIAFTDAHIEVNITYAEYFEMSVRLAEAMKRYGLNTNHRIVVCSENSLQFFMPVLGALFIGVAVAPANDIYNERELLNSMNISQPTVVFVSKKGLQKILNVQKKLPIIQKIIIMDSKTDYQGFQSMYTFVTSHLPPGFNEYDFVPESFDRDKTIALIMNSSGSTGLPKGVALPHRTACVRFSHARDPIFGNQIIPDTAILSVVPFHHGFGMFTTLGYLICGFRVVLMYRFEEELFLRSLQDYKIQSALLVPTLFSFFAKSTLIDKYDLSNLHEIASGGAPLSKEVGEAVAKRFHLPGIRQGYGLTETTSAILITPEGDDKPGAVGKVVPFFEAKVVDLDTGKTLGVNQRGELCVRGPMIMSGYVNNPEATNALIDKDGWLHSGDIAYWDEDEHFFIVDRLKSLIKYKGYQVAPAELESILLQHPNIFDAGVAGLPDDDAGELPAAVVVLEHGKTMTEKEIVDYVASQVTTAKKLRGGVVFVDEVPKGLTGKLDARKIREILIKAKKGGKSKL

COc1ccc(C(=O)N2CCCCCC2)cc1S(=O)(=O)N1CCOCC1
EC50 (cells [1]): > 350 µM (not active) | EC50 (cells [2]): > 350 µM (not active)

COc1cccc(C(=O)C2CCCN(Cc3ccc4nsnc4c3)C2)c1 (stereo not drawn)
EC50 (cells [1]): > 350 µM (not active) | EC50 (cells [2]): > 350 µM (not active)

CC1CC(=O)c2cnc(NCC3CCCO3)nc2C1 (stereo not drawn)
IC50 [3]: 6.33 µM (not active)

c1ccc(CCc2ccncc2)cc1
EC50 [4]: > 60 µM (not active) | EC50 [5]: 1.52 µM (active) | EC50 [6]: > 260 µM (inactive)

COc1ccc(C(=O)NCC(=O)OCC(=O)c2ccc3c(c2)NC(=O)CO3)cc1
EC50 [6]: > 260 µM (inactive)

O=C(NNS(=O)(=O)c1ccc([N+](=O)[O-])cc1)c1ccc([N+](=O)[O-])cc1
IC50 (Fatty acid synthase [7]): 4.95 µM (active) | IC50 (Fatty acid synthase [8]): 4.24 µM (active)

ON=C1c2cc(OCCN3CCCCC3)ccc2-c2ccc(OCCN3CCCCC3)cc21
EC50 [4]: > 60 µM (not active) | EC50 (cells [1]): > 350 µM (not active) | EC50 (cells [2]): > 350 µM (not active) | EC50 [5]: 1.43 µM (active) | EC50 (H4): > 120 µM (not active) | EC50 [9]: > 120 µM (not active)

FC(F)(F)c1cccc(N2CCN(C(S)=NC3CCCC3)CC2)c1
IC50 [3]: 7.79 µM (not active)

Cc1ccc(NC(=O)Cn2cnc3c(=O)n(C)c(=O)n(C)c32)c(C)c1
EC50 (cells [1]): > 350 µM (not active) | EC50 (cells [2]): > 350 µM (not active)

Nc1ccc(C(=O)Nc2ccc3[nH]c(-c4ccncc4)nc3c2)cc1
EC50 (cells [1]): > 350 µM (not active) | EC50 (cells [2]): 49.5 µM (active)

Cc1ccccc1CCN(C(=O)Cn1nnc2ccccc21)C(C(=O)NCC1CCCO1)c1nc2ccccc2n1C (stereo not drawn)
IC50 [3]: 29.6 µM (not active)

O=C(COC(=O)c1cc([N+](=O)[O-])ccc1N1CCOCC1)Nc1c(Cl)cccc1C(F)(F)F
IC50 (Fatty acid synthase [7]): 8.05 µM (active) | IC50 (Fatty acid synthase [8]): 8.39 µM (active)

CCOC(=O)N1CCN(c2ccc(C(=O)c3cccc(F)c3)cc2)CC1
IC50 [3]: 14.3 µM (not active) | AC50 [10]: 3.36 µM (active)

COc1ccc(/C=C/C(=O)c2ccc([N+](=O)[O-])o2)cc1
AC50 [10]: 1.31 µM (active) | AC50 (INS1): 6.75 µM (active)

CCCCC(=O)OCC(=O)c1[nH]c(C)c(C(C)=O)c1C
IC50 [3]: 21.5 µM (not active) | EC50 [11]: > 112 µM (not active) | EC50 [12]: 0.816 µM (active)

COC(=O)N1C(=O)[C@](CC(C)C)(c2ccccc2)N1C(=O)OC
IC50 (Fatty acid synthase [7]): 0.544 µM (active) | IC50 (Fatty acid synthase [8]): 0.385 µM (active)

COc1ccc(CCNC(=O)COC(=O)CCC(=O)c2ccc(F)cc2)cc1OC
EC50 (cells [1]): > 350 µM (not active) | EC50 (cells [2]): > 350 µM (not active)

C=C1CCC[C@]2(C)C[C@H]3OC(=O)C(CNC(CC)CO)[C@H]3CC12 (stereo partly drawn)
EC50 [6]: > 260 µM (inactive)

CCCCn1c(=O)c2c(=O)cc(O)oc2c2ccccc21
EC50 (cells [1]): > 350 µM (not active) | EC50 (cells [2]): > 350 µM (not active)

Cc1nc2scc(-c3ccccc3)c2c(=O)o1
IC50 (Fatty acid synthase [7]): 5.75 µM (active) | IC50 (Fatty acid synthase [8]): 80 µM (inactive)

Cc1nn(-c2ccc(F)cc2)c2sc(C(=O)N3CCCCCC3)cc12
IC50 [3]: > 50 µM (not active) | IC50 (Protein skinhead-1): > 100 µM (inactive)

COc1ccc(Nc2nc(-c3ccccc3O)nc3ccccc23)cc1
AC50 [10]: 2.75 µM (active)

CC(C)Cn1c(SCC(=O)NC(=O)Nc2ccc3c(c2)OCCO3)nc2ccccc2c1=O
IC50 [3]: > 50 µM (not active)

O=S(=O)(c1ccc(Cl)cc1)N1CCCC(c2nc(-c3ccc(F)cc3)no2)C1 (stereo not drawn)
IC50 (Fatty acid synthase [7]): 5.59 µM (active) | IC50 (Fatty acid synthase [8]): 6.27 µM (active)

O=C(O)c1cccnc1Sc1ccccc1
EC50 [6]: > 260 µM (inactive)

CC(=O)Cn1c(=O)c2c(nc3n2CCCN3Cc2ccccc2)n(C)c1=O
EC50 (cells [1]): > 350 µM (not active) | EC50 (cells [2]): > 350 µM (not active)

CCn1c(=O)c(C(=O)NCc2ccccc2OC)c(O)c2ccccc21
AC50 [10]: 1.26 µM (active)

Cc1ccc(NC(=O)Nc2cccc(F)c2)nc1
EC50 (cells [1]): 11.8 µM (active) | EC50 (cells [2]): > 350 µM (not active)

C=CCSc1nnc(-c2ccc([N+](=O)[O-])cc2)o1
IC50 [3]: 34.3 µM (not active)

COc1c(Br)cc(Br)cc1C(=O)O
EC50 [6]: > 260 µM (inactive)

COC(=O)c1cccc(C(=O)N2CCCC(C(=O)c3ccccc3OC)C2)c1 (stereo not drawn)
EC50 [6]: > 260 µM (inactive)

CC(C=Cc1ccccc1)=NNS(=O)(=O)c1ccc([N+](=O)[O-])cc1
IC50 (Fatty acid synthase [7]): 9.36 µM (active) | IC50 (Fatty acid synthase [8]): 6.23 µM (active)

C[C@@H]1CN([C@H](C)CO)C(=O)c2cccc(NC(=O)NC3CCCCC3)c2O[C@@H]1CN(C)C(=O)Nc1ccc(C(F)(F)F)cc1
IC50 (Fatty acid synthase [7]): 2.09 µM (active) | IC50 (Fatty acid synthase [8]): 2.26 µM (active)

COc1ccc(C2=CC(=O)CC(c3ccc(F)cc3)C2)cn1 (stereo not drawn)
EC50 [6]: > 260 µM (inactive)

Cc1ccc(C(=O)N/C(=C\c2cn(S(=O)(=O)N(C)C)c3ccccc23)C(=O)N2CCCC2)cc1
IC50 (Fatty acid synthase [7]): 1.58 µM (active) | IC50 (Fatty acid synthase [8]): 1.23 µM (active)

COCCNC(=S)N/N=C/c1ccc(N2CCOCC2)cc1
EC50 [6]: > 260 µM (inactive)

O=C(CN1CCN(S(=O)(=O)c2ccc(Cl)c(C(F)(F)F)c2)CC1)NC(=O)NC1CCCCC1
IC50 (Fatty acid synthase [7]): 3.5 µM (active) | IC50 (Fatty acid synthase [8]): 37.1 µM (inactive)

CCc1nnc(S)n1/N=C/c1ccc(-c2ccc(Br)cc2)o1
EC50 (cells [1]): > 350 µM (not active) | EC50 (cells [2]): > 350 µM (not active)
